One compound from paper PMC10574185, “Encapsulation and Biological Activity of Hesperetin Derivatives with HP-β-CD” (Molecules, 2023) can be followed below.

The subject of series [1] is Staphylococcus aureus ATCC 25923. Briefly: Minimal inhibition concentration (dilution + diffusion-well). It is filed as cell-based. The following applies: ATCC25923, 37 °C, 18 h. The protocol:
(§1) The MIC was performed for compounds and strains sensitive to their action in the antagonistic test. Minimum inhibitory concentration was determined by combining the dilution method with the diffusion-well method. Test compounds at a concentration of 500 μM were prepared in 5% (w/w) DMSO. Surface layer of microorganisms, against which antagonistic activity was noted, were prepared in the same way as for the antagonistic test. Then, two-fold sequential dilutions of the test compounds in the range of 500 µM to 62.5 µM were prepared. Wells with a diameter of 8 mm cut in the Mueller–Hinton Agar (Merck, Darmstadt, Germany) with the test strain were added with 50 µL of the prepared dilutions, which corresponded to the following concentrations of the tested compounds: […], 1.25 mM, 0.625 mM, and […]. Petri dishes prepared in this way were incubated at 37 °C for 18 h. After a given time, the MIC value was read. The MIC concentration expressed in µM was the first concentration of the tested compounds at which growth inhibition of the test strain was observed.

Series [2] deals with Escherichia coli ATCC 11303. The description is as above. It is filed as cell-based. The following applies: ATCC11303, 37 °C, 18 h. The protocol:
as §1

For series [3], the system named is Staphylococcus aureus ATCC 29737. Described as above. It is filed as cell-based. Particulars: ATCC29737, 37 °C, 18 h. The protocol:
as §1

Series [4] has as its system Listeria monocytogenes ATCC 19112. Briefly: Antagonistic activity, diffusion-well method. It is filed as cell-based. Particulars: ATCC19112, compounds at 2.5 µM, wells 8 mm, 37 °C, 18 h. The procedure: (§2) The antimicrobial activity of the HESP, ligands ([…], and HTSC), and complexes with HP-β-CD were tested against Gram-positive bacteria (Listeria monocytogenes ATCC 19111, Listeria monocytogenes ATCC 19112, Listeria monocytogenes ATCC 19115, Staphylococcus aureus ATCC 29737, Staphylococcus aureus ATCC 25923, Staphylococcus aureus ATCC 27734) and Gram-negative bacteria (Escherichia coli ATCC 11303, Escherichia coli ATCC 35218, Salmonella Typhimurium, ATCC 14028, Salmonella Enteritidis ATCC 13076, Salmonella Choleraesuis ATCC 7001). The strains were activated from cryobanks by passaging them twice onto a Nutrient Broth (Merck, Darmstadt, Germany). All bacteria were grown for 24 h at 37 °C. Antagonistic activity of the following chemical compounds: […], and […] determined by the diffusion-well method. The test strains were plated on Mueller-Hinton Agar (Merck, Darmstadt, Germany) in the form of a surface layer of bacteria according to the procedures recommended by the European Committee on Antimicrobial Susceptibility Testing EUCAST [74]. The detailed methodology was described in the paper by Sykuła et al.. Bacterial inoculum was prepared from an overnight solid culture. The inoculum density was 1-2 × 10^8 CFU/mL, which corresponds to a McFarland standard of 0.5. The samples of the test compounds were dissolved in 5% (w/w) DMSO to obtain a concentration of 500 μM, and were sterilized using filtration (filter pore width 0.2 μm; (Sartorius AG, Gottingen, Germany). The bacteria inoculum test culture (0.1 mL) smear conducted was on sterile Mueller-Hinton Agar (Merck, Darmstadt, Germany) plates. […] A total of 50 μL of the prepared solutions of the tested compounds at a concentration of 500 μM were added to the wells. The plates prepared in this way were incubated at 37 °C for 18 h. After this time, zones of growth inhibition were read and the result was given in mm. The experiment was carried out in two independent repetitions. The results were expressed in average values and standard deviation. The results were analyzed using a one-way ANOVA and post-hoc Tukey's test.

Series [5] has as its system Salmonella Enteritidis ATCC 13076. Briefly: Antagonistic activity, diffusion-well method. The format is cell-based. Particulars: Salmonella enterica, compounds at 2.5 µM, wells 8 mm, 37 °C, 18 h. The protocol: as §2
In series [6] the test system is Salmonella Typhimurium ATCC 14028. Briefly: Antagonistic activity, diffusion-well method. The format is cell-based. Particulars: Salmonella enterica, compounds at 2.5 µM, wells 8 mm, 37 °C, 18 h. The procedure: as §2
Series [7] has as its system Salmonella Choleraesuis ATCC 7001. Briefly: Antagonistic activity, diffusion-well method. Particulars: Salmonella enterica, compounds at 2.5 µM, wells 8 mm, 37 °C, 18 h. It is filed as cell-based. The procedure:
as §2

Series [8] has as its system Listeria monocytogenes ATCC 19111. Briefly: Antagonistic activity, diffusion-well method. It is filed as cell-based. The following applies: ATCC19111, compounds at 2.5 µM, wells 8 mm, 37 °C, 18 h. The procedure:
as §2

The subject of series [9] is Listeria monocytogenes ATCC 19115. Briefly: Antagonistic activity, diffusion-well method. It is filed as cell-based. Particulars: ATCC19115, compounds at 2.5 µM, wells 8 mm, 37 °C, 18 h. The procedure:
as §2

For series [10], the system named is Staphylococcus aureus ATCC 27734. Briefly: Antagonistic activity, diffusion-well method. The format is cell-based. The following applies: ATCC27734, compounds at 2.5 µM, wells 8 mm, 37 °C, 18 h. The protocol: as §2
The test system of a further series is HaCaT cells. Briefly: MTT cytotoxicity assay on HaCaT keratinocytes. The format is cell-based, human. The procedure: HaCaT keratinocyte cells were exposed to chemical compounds at nine different concentrations (from 3.9 to 995.6 µg/mL) in four replicates of each concentration for 24 and 48 h.
All compounds were dissolved in sterile DMSO (Merck Life Science, Warsaw, Poland) and were sterile-filtered with 0.22 µm pore size sterile disposable syringe filters.
HaCaT cell line (the normal immortalised human keratinocytes) used in the study derived from the 35th passage (the original material created by Prof. Dr. Petra Boukamp and Dr. Norbert Fusenig) was purchased from Cell Line Service GmbH (Eppelheim, Germany). The cells were cultured and propagated as described previously.
The cytotoxicity was assessed with MTT assay according to methodology applied previously.
The following final concentrations (in four replicates per experiment) of the test compounds were tested (µg/mL): 3.9; 7.8; 15.6; 31.1; 62.2; 124.5; 248.9; 497.8, and 995.6. […] Three independent experiments were conducted. The vehicle was cells in the culture medium. The assay was conducted for 24 h and 48 h.
Background: Tetrazolium assays rely on reduction of a dye to a coloured formazan, in cell work by metabolically active cells.

One may read the MIC as the lowest concentration found to suppress growth. In general, zone of inhibition refers to the extent of the growth-free halo in a diffusion test. Low values mean a weaker effect on the plate, high ones a stronger effect on the plate. On to `CC(O)COC[C@H]1O[C@@H]2O[C@H]3[C@H](O)[C@@H](O)[C@@H](O[C@H]4[C@H](O)[C@@H](O)[C@@H](O[C@H]5[C@H](O)[C@@H](O)[C@@H](O[C@H]6[C@H](O)[C@@H](O)[C@@H](O[C@H]7[C@H](O)[C@@H](O)[C@@H](O[C@H]8[C@H](O)[C@@H](O)[C@@H](O[C@H]1[C@H](O)[C@H]2O)O[C@@H]8COCC(C)O)O[C@@H]7COCC(C)O)O[C@@H]6COCC(C)O)O[C@@H]5COCC(C)O)O[C@@H]4COCC(C)O)O[C@@H]3COCC(C)O` (stereo partly drawn) [HP-β-CD, (2-Hydroxypropyl)-β-cyclodextrin], for which the MIC in [1], in series [2] and in [3] was 2.5 µM in each case. Also, the zone of inhibition at 2.5 µM in series [4], in series [5], in series [6], in [7], in [8] and in series [9] was 0 mm each time. This compound also displayed a zone of inhibition at 2.5 µM in [10] of 0 mm. For the same compound, the “cytotoxicity (maximum over tested concentrations)” value in the series on HaCaT cells (24 h, 3.9-995.6 µg/mL) is on record as “up to 6.6% ± 7.2”. Further, the “Non-cytotoxic concentration (IC0)” value is recorded as ≤ 31.1 µg/mL in the series with HaCaT cells (24 h exposure) and ≤ 3.9 µg/mL with HaCaT cells (48 h exposure).
